Measurements as given in patent US20260217697A1, “COMPOUNDS COMPRISING HETEROARYL RINGS AND COMPOSITIONS AND METHODS THEREOF” (lonGen Therapeutics Co., Ltd., priority 2022, published 2026).

Biological target: T1, hTRPV3 (Homo sapiens, UniProt Q8NET8)
T1 construct: The commercially available plasmid with the full-length cDNA of hTRPV3 (791 aa) (NM_001258205.2); host or cells: HEK293T
T1 sequence (Q8NET8 1-791 isoform Q8NET8-2): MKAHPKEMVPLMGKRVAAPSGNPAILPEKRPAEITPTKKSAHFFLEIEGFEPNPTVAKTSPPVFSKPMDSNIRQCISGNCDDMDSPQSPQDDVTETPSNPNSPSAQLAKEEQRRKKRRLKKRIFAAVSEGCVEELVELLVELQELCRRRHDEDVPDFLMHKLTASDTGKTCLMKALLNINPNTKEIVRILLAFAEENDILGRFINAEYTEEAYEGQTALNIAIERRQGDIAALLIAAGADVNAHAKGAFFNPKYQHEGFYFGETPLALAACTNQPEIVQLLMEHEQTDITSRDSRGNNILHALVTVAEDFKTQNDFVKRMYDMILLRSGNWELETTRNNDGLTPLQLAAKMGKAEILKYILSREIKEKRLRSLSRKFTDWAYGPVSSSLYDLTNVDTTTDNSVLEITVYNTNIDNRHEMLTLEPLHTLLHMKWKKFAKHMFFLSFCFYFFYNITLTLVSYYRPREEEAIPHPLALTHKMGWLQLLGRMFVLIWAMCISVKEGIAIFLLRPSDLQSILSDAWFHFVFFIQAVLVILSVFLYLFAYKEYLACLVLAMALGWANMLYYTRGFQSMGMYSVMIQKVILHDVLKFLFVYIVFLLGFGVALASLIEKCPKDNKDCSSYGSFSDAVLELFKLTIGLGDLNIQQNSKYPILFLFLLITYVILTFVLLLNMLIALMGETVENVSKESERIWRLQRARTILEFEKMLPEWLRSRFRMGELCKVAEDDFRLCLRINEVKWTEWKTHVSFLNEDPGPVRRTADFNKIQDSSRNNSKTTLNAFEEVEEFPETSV
Assay: Whole-cell patch-clamp recording of hTRPV3 current in transfected HEK293T cells (2-APB induced)
Assay type: cell-based
Details: current induced by 300 μM 2-APB, compounds tested up to 10 μM, room temperature
Protocol: Various technologies can be utilized to assess TRPV3 activation in accordance with the present disclosure. For example, in some embodiments, compounds are assessed in in vitro patch clamp experiments. Certain useful procedures are described herein as examples.
In some embodiments, whole-cell patch-clamp recordings were used to detect the current through hTRPV3 channels in the HEK293T cell line transfected with hTRPV3 cDNA and evaluate the exact blocking effect of compounds on hTRPV3. In some embodiments, a perfusion system was adopted to control the extracellular solution, including the addition of the agonist and different antagonists.
HEK293T cells were cultured in a Dulbecco's modified Eagle's medium containing 10% fetal bovine serum (Thermo Scientific) and 1% penicillin/streptomycin (Thermo Scientific) at 37° C. with 5% CO2. The commercially available plasmid with the full-length cDNA of hTRPV3 (791 aa) (NM_001258205.2) was purchased from OriGene Technologies. The transfection of hTRPV3 plasmids was conducted using Lipofectamine™ 3000 following the manufacturer's instructions (Invitrogen).
Whole-cell patch-clamp experiments were performed 18 h post-transfection, using a MultiClamp 700B amplifier driven by pClamp 11 software (Molecular Devices). In order to achieve good single-cell physical separation, HEK293T cells with hTRPV3 expression were digested and then re-plated at low density on glass coverslips. Electrodes were pulled from borosilicate glass with a P-97 micropipette puller (Sutter Instruments) and those with resistances of 3-5 MΩ are used for experiments. In some embodiments, an Ag—AgCl wire was used as a reference electrode and signals are filtered using a 2.9 kHz low-pass Bessel filter. Membrane potential was held at 0 mV. For recording of agonist-induced activation and inhibition by different test compounds, currents were elicited by a protocol consisting of a 400-ms step to +80 mV, followed by a 400-ms step to −80 mV at 2-s intervals. both pipette and bath solutions contained 130 mM NaCl, 0.3 mM EDTA, and 3 mM HEPES (buffered to pH 7.4 with NaOH). All recordings were made at room temperature.
All patch-clamp recordings were analyzed using the Clampfit software and GraphPad Prism 6.0 software. Specifically, data are analyzed by calculating the degree of current amplitude after the test compound addition compared with the unblocked agonist-induced current amplitude. The resulting blocking percentage at each concentration was used to make a concentration-response analysis and fitted to the Hill equation: blocking percentage=minimum blocking percentage+ (maximum blocking percentage-minimum blocking percentage)/(1+10^(Hill slope* […])). The minimum blocking percentage is 0% and maximum blocking percentage is 100%, while the Hill slope and the IC50 were determined as the curve fitting routine. Compounds of interest were tested against hTRPV3 at concentrations up to 10 μM, and certain data was used to estimate IC50 as described herein.

Row | SMILES | IC50 [nM]
1 | CCOc1ncnc(OCC)c1C(=O)Nc1nc2c(s1)C(CC)(CC)Oc1cc(C(F)(F)F)ccc1-2 [compound 47, N-(4,4-diethyl-7-(trifluoromethyl)-4H-chromeno[4,3-d]thiazol-2-yl)-4,6-diethoxypyrimidine-5-carboxamide] | 100 to 1000
2 | CCC1(CC)Oc2cc(C(F)(F)F)ccc2-c2nc(NC(=O)c3c(OCC(F)(F)F)ncnc3OCC(F)(F)F)sc21 [compound 48, N-(4,4-diethyl-7-(trifluoromethyl)-4H-chromeno[4,3-d]thiazol-2-yl)-4,6-bis(2,2,2-trifluoroethoxy)pyrimidine-5-carboxamide] | ≥ 10000
3 | CCC1(CC)Oc2cc(Br)ccc2-c2nc(NC(=O)c3c(OC)ncnc3OC)sc21 [compound 49, N-(7-bromo-4,4-diethyl-4H-chromeno[4,3-d]thiazol-2-yl)-4,6-dimethoxypyrimidine-5-carboxamide] | 1000 to 10000
4 | CCC1(CC)Oc2cc(C#N)ccc2-c2nc(NC(=O)c3c(OC)ncnc3OC)sc21 [compound 50, N-(7-cyano-4,4-diethyl-4H-chromeno[4,3-d]thiazol-2-yl)-4,6-dimethoxypyrimidine-5-carboxamide] | 100 to 1000
5 | CCC1(CC)Oc2cc3c(cc2-c2nc(NC(=O)c4c(OC)ncnc4OC)sc21)OCO3 [compound 51, N-(4,4-diethyl-4H-[1,3]dioxolo[4′,5′: 6,7]chromeno[4,3-d]thiazol-2-yl)-4,6-dimethoxypyrimidine-5-carboxamide] | ≥ 10000
6 | CCC1(CC)Oc2cc(C(F)(F)F)ccc2-c2nc(NC(=O)c3c(C)ncnc3C)sc21 [compound 52, N-(4,4-diethyl-7-(trifluoromethyl)-4H-chromeno[4,3-d]thiazol-2-yl)-4,6-dimethylpyrimidine-5-carboxamide] | 1000 to 10000
7 | CCC1(CC)Oc2cc(C(F)(F)F)ccc2-c2nc(N(C)C(=O)c3c(OC)ncnc3OC)sc21 [compound 53] | ≥ 10000
8 | CCC1(CC)Oc2cc(C3CC3)ccc2-c2nc(NC(=O)c3c(OC)ncnc3OC)sc21 [compound 54, N-(7-cyclopropyl-4,4-diethyl-4H-chromeno[4,3-d]thiazol-2-yl)-4,6-dimethoxypyrimidine-5-carboxamide] | 100 to 1000
9 | C=C(C)c1ccc2c(c1)OC(CC)(CC)c1sc(NC(=O)c3c(OC)ncnc3OC)nc1-2 [compound 55, N-(4,4-diethyl-7-(prop-1-en-2-yl)-4H-chromeno[4,3-d]thiazol-2-yl)-4,6-dimethoxypyrimidine-5-carboxamide] | 100 to 1000
10 | CCC1(CC)Oc2cc(C(F)(F)F)ccc2-c2nc(NS(=O)(=O)c3c(OC)ncnc3OC)sc21 [compound 56] | ≥ 10000
11 | CCC1(CC)Oc2cc(C(F)(F)F)ccc2-c2nc(NC(=O)c3c(C)ncnc3OC)sc21 [compound 57, N-(4,4-diethyl-7-(trifluoromethyl)-4H-chromeno[4,3-d]thiazol-2-yl)-4-methoxy-6-methylpyrimidine-5-carboxamide] | 100 to 1000
12 | CCC1(CC)Oc2cc(N3CCOCC3)ccc2-c2nc(NC(=O)c3c(OC)ncnc3OC)sc21 [compound 58, N-(4,4-diethyl-7-morpholino-4H-chromeno[4,3-d]thiazol-2-yl)-4,6-dimethoxypyrimidine-5-carboxamide] | 1000 to 10000
13 | COc1ncnc(OC)c1C(=O)Nc1nc2c(s1)C1(CCOCC1)Oc1cc(C(F)(F)F)ccc1-2 [compound 59, 4,6-dimethoxy-N-(7-(trifluoromethyl)-2′,3′,5′,6′-tetrahydrospiro[chromeno[4,3-d]thiazole-4,4′-pyran]-2-yl)pyrimidine-5-carboxamide] | 100 to 1000
14 | CCC1(CC)Oc2nc(C(F)(F)F)ccc2-c2nc(NC(=O)c3c(OC)ncnc3OC)sc21 [compound 60, N-(4,4-diethyl-7-(trifluoromethyl)-4H-thiazolo[4′,5′: 4,5]pyrano[2,3-b]pyridin-2-yl)-4,6-dimethoxypyrimidine-5-carboxamide] | 100 to 1000
15 | CCC1(CC)Oc2cc(C(C)(C)O)ccc2-c2nc(NC(=O)c3c(OC)ncnc3OC)sc21 [compound 61, N-(4,4-diethyl-7-(2-hydroxypropan-2-yl)-4H-chromeno[4,3-d]thiazol-2-yl)-4,6-dimethoxypyrimidine-5-carboxamide] | 1000 to 10000
16 | CCOC(=O)c1ccc2c(c1)OC(CC)(CC)c1sc(NC(=O)c3c(OC)ncnc3OC)nc1-2 [compound 62, ethyl 2-(4,6-dimethoxypyrimidine-5-carboxamido)-4,4-diethyl-4H-chromeno[4,3-d]thiazole-7-carboxylate] | 1000 to 10000
17 | COc1ncnc(OC)c1C(=O)Nc1nc2c(s1)C1(CN(C(=O)OC(C)(C)C)C1)Oc1cc(C(F)(F)F)ccc1-2 [compound 63, tert-butyl 2′-(4,6-dimethoxypyrimidine-5-carboxamido)-7′-(trifluoromethyl)spiro[azetidine-3,4′-chromeno[4,3-d]thiazole]-1-carboxylate] | < 100
18 | COc1ncnc(OC)c1C(=O)Nc1nc2c(s1)C1(CCN(C(C)=O)CC1)Oc1cc(C(F)(F)F)ccc1-2 [compound 64, N-(1′-acetyl-7-(trifluoromethyl)spiro[chromeno[4,3-d]thiazole-4,4′-piperidin]-2-yl)-4,6-dimethoxypyrimidine-5-carboxamide] | 100 to 1000
19 | COc1ncnc(OC)c1C(=O)Nc1nc2c(s1)C1(COC1)Oc1cc(C(F)(F)F)ccc1-2 [compound 65, 4,6-dimethoxy-N-(7-(trifluoromethyl)spiro[chromeno[4,3-d]thiazole-4,3′-oxetan]-2-yl)pyrimidine-5-carboxamide] | 100 to 1000
20 | COCC1(COC)Oc2cc(C(F)(F)F)ccc2-c2nc(NC(=O)c3c(OC)ncnc3OC)sc21 [compound 66, N-(4,4-bis(methoxymethyl)-7-(trifluoromethyl)-4H-chromeno[4,3-d]thiazol-2-yl)-4,6-dimethoxypyrimidine-5-carboxamide] | 100 to 1000
21 | COc1ncnc(OC)c1C(=O)Nc1nc2c(s1)C1(CNC1)Oc1cc(C(F)(F)F)ccc1-2 [compound 67, 4,6-dimethoxy-N-(7′-(trifluoromethyl)spiro[azetidine-3,4′-chromeno[4,3-d]thiazol]-2′-yl)pyrimidine-5-carboxamide] | ≥ 10000
22 | COc1ncnc(OC)c1C(=O)Nc1nc2c(s1)C1(CN(C(C)=O)C1)Oc1cc(C(F)(F)F)ccc1-2 [compound 68, N-(1-acetyl-7′-(trifluoromethyl)spiro[azetidine-3,4′-chromeno[4,3-d]thiazol]-2′-yl)-4,6-dimethoxypyrimidine-5-carboxamide] | 1000 to 10000
23 | COc1ncnc(OC)c1C(=O)Nc1nc2c(s1)C1(CCN(C(=O)C3CC3)CC1)Oc1cc(C(F)(F)F)ccc1-2 [compound 69, N-(1′-(cyclopropanecarbonyl)-7-(trifluoromethyl)spiro[chromeno[4,3-d]thiazole-4,4′-piperidin]-2-yl)-4,6-dimethoxypyrimidine-5-carboxamide] | 100 to 1000
24 | CCC1(CC)Oc2cc(C(F)(F)F)ccc2-c2nc(NC(=O)c3c(OC)ncnc3OCCOC)sc21 [compound 70, N-(4,4-diethyl-7-(trifluoromethyl)-4H-chromeno[4,3-d]thiazol-2-yl)-4-methoxy-6-(2-methoxyethoxy)pyrimidine-5-carboxamide] | 100 to 1000
